In patent US20090291066A1, “COMPOSITION AND METHOD OF TREATING FACIAL SKIN DEFECT” (priority 2008, published 2009):

Key:
[1] = system: facial preadipocytes; experiment: Differentiation of human primary facial preadipocytes (lipid droplet formation, oil red O); format: cell-based; conditions: cell source not given
Protocol: Human primary preadipocytes from facial and abdominal skin samples, obtained with informed consent, were isolated and cultured following a published procedure (Crandall et al, Endocrinology 140:154-8, 1999). Briefly, samples from abdominal or facial operations were subjected to enzymatic digestion in Krebs-Ringer-bicarbonate buffer (pH 7.4) containing 6 mM glucose and 2 mg/mL collagenase. After this initial enzymatic digestion, the content of the flask was passed through a sterile, 230-micron stainless steel tissue sieve (Cellector, Bellco Glass Inc., Vineland, N.J.) into a 50-mL sterile, plastic test tube. […]
All differentiation agents (IBMX, dexamethasone, insulin, and rosiglitazone) were added to the culture media 24 hours after the cells were seeded. […] Subsequently, the cultures were incubated with oil red O (a dye that binds to neutral lipids); the dye was then extracted and quantified by spectrophotometry. […]
Human primary preadipocytes were isolated and cultured as described in Example 2. […] Subsequently, the cultures were incubated with oil red O (a dye that binds to neutral lipids); the dye was then extracted and quantified by spectrophotometry. […]

[2] = system: serum proteins; conditions: in vivo; cited from earlier work

Row | Structure (SMILES) | adipogenesis of preadipocytes ([1]; added in the media at 5-50 μM in addition to IBMX, insulin and dexamethasone) | effect on the differentiation process ([1]; alone, without IBMX and dexamethasone) | bound to serum proteins [2] [%]
1 | CCCCC/C=C\C/C=C\CCCCCCCC(=O)O [Linoleic acid, linoleic acid] | can enhance adipogenesis of preadipocytes | could not affect the differentiation process | 
2 | CN(CCOc1ccc(CC2SC(=O)NC2=O)cc1)c1ccccn1 (stereo not drawn) [Rosiglitazone, rosiglitazone] |  |  | 99.8
